Measurements from article PMC6458216, “In vitro reconstitution and characterisation of the oxidative D-xylose pathway for production of organic acids and alcohols” (AMB Express, 2019).

Assays:
Type in all cases: biochemical
Cc XylC = molecular target: T1, Cc XylC (Caulobacter vibrioides, UniProt Q9A9Z1); assay: CD ([…] nm) and 1H-NMR lactone ring-opening assay; details: CD: 1 mM lactone, 10 mM Tris-HCl pH 6-8, 25 °C; NMR: 2 mM lactone, pH 6.8, 22 °C, 100 µM metal ions or EDTA
T1 construct: full length, untagged (C-terminal Strep-tag II removed), synthetic codon-optimised gene in E. coli BL21(DE3), DEAE purified, mainly monomer

Ec FucO = molecular target: T2, Ec FucO (Escherichia coli, UniProt P0A9S1); assay: purified enzyme within 4-enzyme cascade, NADH oxidation at […] nm; details: glycolaldehyde formed by Ec YagE from 1 mM xylonolactone via cascade; 2 mM NADH, 50 mM Tris-HCl pH 7.0, 22 °C
T2 sequence (P0A9S1 1-382): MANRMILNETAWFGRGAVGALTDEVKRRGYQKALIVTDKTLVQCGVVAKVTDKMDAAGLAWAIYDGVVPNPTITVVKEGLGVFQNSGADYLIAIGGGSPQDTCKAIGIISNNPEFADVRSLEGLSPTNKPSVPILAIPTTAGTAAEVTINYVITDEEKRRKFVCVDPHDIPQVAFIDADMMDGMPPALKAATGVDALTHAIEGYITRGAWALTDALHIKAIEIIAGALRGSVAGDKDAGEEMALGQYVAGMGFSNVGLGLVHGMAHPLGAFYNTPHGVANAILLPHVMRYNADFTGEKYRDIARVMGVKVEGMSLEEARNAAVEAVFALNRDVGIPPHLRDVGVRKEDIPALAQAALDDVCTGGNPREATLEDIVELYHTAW

Ec AldA = Ec AldA (Escherichia coli, UniProt P25553); assay: NADH formation at […] nm, steady-state kinetics; details: 50 mM Tris-HCl pH 7.0, 2 mM NAD+, 1 mM DTT, glycolaldehyde 0-2 mM
Ab AraE = Ab AraE (Azospirillum brasilense, UniProt Q1JUP4); assay: NADH formation at […] nm, steady-state kinetics; details: 50 mM Tris-HCl pH 7.0, 2 mM NAD+, 1 mM DTT, glycolaldehyde 0-2 mM
Chain of Ab AraE (Q1JUP4 whole entry): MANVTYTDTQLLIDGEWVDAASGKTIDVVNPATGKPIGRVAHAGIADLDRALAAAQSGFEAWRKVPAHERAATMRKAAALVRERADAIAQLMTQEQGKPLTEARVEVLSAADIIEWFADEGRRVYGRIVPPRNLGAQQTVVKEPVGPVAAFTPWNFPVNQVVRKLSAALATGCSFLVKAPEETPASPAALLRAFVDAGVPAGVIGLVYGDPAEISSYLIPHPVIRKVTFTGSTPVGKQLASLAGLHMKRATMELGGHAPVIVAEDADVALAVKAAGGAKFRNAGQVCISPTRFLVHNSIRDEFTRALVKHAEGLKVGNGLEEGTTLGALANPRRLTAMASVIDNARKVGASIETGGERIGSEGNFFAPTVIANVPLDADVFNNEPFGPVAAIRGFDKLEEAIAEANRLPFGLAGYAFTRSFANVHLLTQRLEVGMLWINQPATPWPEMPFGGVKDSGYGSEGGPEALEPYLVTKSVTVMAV

T1 sequence (Q9A9Z1 whole entry): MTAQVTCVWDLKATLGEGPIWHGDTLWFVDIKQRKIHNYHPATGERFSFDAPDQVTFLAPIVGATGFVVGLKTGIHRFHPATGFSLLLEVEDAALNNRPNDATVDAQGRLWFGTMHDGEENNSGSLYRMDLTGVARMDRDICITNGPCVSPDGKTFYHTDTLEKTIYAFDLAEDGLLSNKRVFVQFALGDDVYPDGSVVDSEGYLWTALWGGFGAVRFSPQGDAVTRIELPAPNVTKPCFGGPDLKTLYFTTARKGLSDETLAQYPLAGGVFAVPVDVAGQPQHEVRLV
Chain of Ec AldA (P25553 whole entry): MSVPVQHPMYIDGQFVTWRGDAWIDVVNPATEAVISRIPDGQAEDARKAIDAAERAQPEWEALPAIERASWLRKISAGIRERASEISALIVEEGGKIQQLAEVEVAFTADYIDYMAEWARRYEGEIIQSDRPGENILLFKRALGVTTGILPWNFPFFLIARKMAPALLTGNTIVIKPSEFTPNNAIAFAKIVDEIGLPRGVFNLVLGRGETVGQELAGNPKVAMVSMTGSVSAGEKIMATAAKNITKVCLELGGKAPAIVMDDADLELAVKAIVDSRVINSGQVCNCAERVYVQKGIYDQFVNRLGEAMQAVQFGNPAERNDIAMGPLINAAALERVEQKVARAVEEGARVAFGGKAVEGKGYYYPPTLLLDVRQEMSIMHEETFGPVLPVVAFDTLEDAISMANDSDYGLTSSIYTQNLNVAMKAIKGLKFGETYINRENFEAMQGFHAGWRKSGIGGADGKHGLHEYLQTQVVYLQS

Compound	CD (220 nm) and 1H-NMR lactone ring-opening assay (Cc XylC)	purified enzyme within 4-enzyme cascade, NADH oxidation at 340 nm (Ec FucO)	NADH formation at 340 nm, steady-state kinetics (Ec AldA)	NADH formation at 340 nm, steady-state kinetics (Ab AraE)
O=C1O[C@H](CO)[C@H](O)[C@H]1O [D-xylono-1,4-lactone]	Cc XylC was able to open the xylonolactone without addition of any metal	–	–	–
NC(=O)C1=CN([C@@H]2O[C@H](COP(=O)(O)OP(=O)(O)OC[C@H]3O[C@@H](n4cnc5c(N)ncnc54)[C@H](O)[C@@H]3O)[C@@H](O)[C@H]2O)C=CC1 [NADH]	–	the production of ethylene glycol was followed through generation of NAD^+	–	–
O=CCO [glycolaldehyde]	–	an increase of the enzyme concentration resulted in an increase in the production levels	we compare the glycolaldehyde dependent activity of Ec AldA and Ab AraE	we compare the glycolaldehyde dependent activity of Ec AldA and Ab AraE
